In patent US20230293517A1, “ANTAGONIST COMPOUNDS” (AdoRx Therapeutics Limited, priority 2020, published 2023):
pKi: −log10 of the molar value. Counter-ions that a name gives are not always drawn.

Experiments:
[1] = target: human Adenosine A3 receptor (Homo sapiens (Human), UniProt P0DMS8); test: Adenosine receptor TR-FRET binding assay (A3); conditions: inhibition of binding of 100 nM CA200645, CHO cell membranes
Description: Biological Example 1—Adenosine Receptor Time-Resolved Fluorescence Resonance Energy Transfer (TRFRET) Binding Assay
All FRET binding experiments were conducted at room temperature in white 384-well plates, in assay binding buffer containing 1×LabMed (Cisbio, France), 100 μg/mL saponin, 1% DMSO and 0.02% pluronic acid. Binding of the fluorescently labelled Adenosine receptor antagonist XAC (CA200645, FRET acceptor) to terbium-labelled A1, A2a, A2b and A3 adenosine receptors (FRET donors) was detected by time-resolved FRET due to the close proximity of the donor and acceptor in a binding event. To investigate the ability of unlabelled test compounds to bind to Adenosine A1, A2a, A2b and A3 receptors, dose response curves were constructed that determined the ability of a range of concentrations to inhibit the binding of 30 nM CA200645 to the A2b receptor and 100 nM CA200645 to the A1, A2a, and A3 receptor.
Serial dilution (1:3 dilutions) of test compounds in neat DMSO and transfer of a 400 nL sample of test compound into the assay plate was carried out using the Mosquito (TTP Labtech, UK). The compound samples were incubated for 2 hours at room temperature with a fixed concentration of CA200645 defined for each receptor (see above) and CHO cell membranes containing the human Adenosine A1 (0.5 μg/well), A2a (0.3 μg/well), A2b (1 μg/well) or A3 (1 μg/well) receptor in 40 μL of assay buffer. Total and non-specific binding of CA200645 was determined in the absence and presence of 10 μM XAC, respectively. Following 2 hours incubation, the level of CA200645 binding was detected on a Pherastar FSX (BMG Labtech, Germany) using standard TR-FRET settings. The terbium donor was excited with three laser flashes at a wavelength of 337 nm, and donor and acceptor emission was detected at 620 nm and 665 nm wavelengths, respectively. FRET ratios were obtained by multiplying the acceptor/donor ratio value by 10,000. Specific binding was determined by subtracting the non-specific binding FRET ratio from the total binding FRET ratio. Compound IC50 curves were analysed using GraphPad Prism 7.0 (GraphPad, USA) and Ki affinity values were determined from the obtained IC50 values using the method of Cheng and Prusoff.

[2] = target: human Adenosine A2b receptor (Homo sapiens (Human), UniProt P29275); test: Adenosine receptor TR-FRET binding assay (A2b); conditions: TR-FRET, inhibition of binding of 30 nM CA200645, CHO cell membranes
Summary of the method: (§1)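 Terbium-labelled human receptors in CHO cell membranes were incubated 2 h at room temperature with test compounds and fluorescent XAC tracer CA200645 (30 nM for A2b; 100 nM for A1, A2a, A3). TR-FRET 665/620 nm ratio gave specific binding; Ki derived from IC50 by Cheng–Prusoff.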

[3] = target: human Adenosine A2a receptor (Homo sapiens (Human), UniProt P29274); test: Adenosine receptor TR-FRET binding assay (A2a); conditions: inhibition of binding of 100 nM CA200645, CHO cell membranes
Summary of the method: as §1

[4] = target: human Adenosine A1 receptor (Homo sapiens (Human), UniProt P30542); test: Adenosine receptor TR-FRET binding assay (A1); conditions: inhibition of binding of 100 nM CA200645, CHO cell membranes
Summary of the method: as §1

Chain of human Adenosine A2b receptor (P29275 whole entry): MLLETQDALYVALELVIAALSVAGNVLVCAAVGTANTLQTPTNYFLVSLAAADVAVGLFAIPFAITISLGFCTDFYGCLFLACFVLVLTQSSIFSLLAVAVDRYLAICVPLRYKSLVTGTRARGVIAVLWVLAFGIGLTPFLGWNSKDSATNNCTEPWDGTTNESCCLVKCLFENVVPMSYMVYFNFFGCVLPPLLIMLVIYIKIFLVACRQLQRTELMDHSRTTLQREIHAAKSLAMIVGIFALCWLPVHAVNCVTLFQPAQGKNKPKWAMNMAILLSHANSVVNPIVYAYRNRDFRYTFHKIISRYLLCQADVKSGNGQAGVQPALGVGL
Chain of human Adenosine A3 receptor (P0DMS8 whole entry): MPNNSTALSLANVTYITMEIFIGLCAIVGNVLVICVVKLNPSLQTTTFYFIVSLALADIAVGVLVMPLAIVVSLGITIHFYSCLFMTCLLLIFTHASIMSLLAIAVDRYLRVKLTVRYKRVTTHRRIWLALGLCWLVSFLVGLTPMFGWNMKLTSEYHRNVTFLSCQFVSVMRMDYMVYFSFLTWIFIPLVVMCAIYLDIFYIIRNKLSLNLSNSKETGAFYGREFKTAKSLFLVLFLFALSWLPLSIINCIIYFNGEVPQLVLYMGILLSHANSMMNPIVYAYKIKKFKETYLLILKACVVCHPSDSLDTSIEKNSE
Chain of human Adenosine A2a receptor (P29274 whole entry): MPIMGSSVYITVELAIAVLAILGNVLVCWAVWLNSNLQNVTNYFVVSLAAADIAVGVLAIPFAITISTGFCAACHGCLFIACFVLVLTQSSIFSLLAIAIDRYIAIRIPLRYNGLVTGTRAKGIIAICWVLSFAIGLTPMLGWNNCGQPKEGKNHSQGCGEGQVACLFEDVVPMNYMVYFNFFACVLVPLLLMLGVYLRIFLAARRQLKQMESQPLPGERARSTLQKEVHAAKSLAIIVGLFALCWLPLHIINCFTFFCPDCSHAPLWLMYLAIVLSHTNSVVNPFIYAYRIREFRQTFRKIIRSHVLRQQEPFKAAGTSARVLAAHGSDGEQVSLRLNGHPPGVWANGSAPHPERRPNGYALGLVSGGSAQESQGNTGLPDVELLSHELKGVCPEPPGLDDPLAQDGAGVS
Chain of human Adenosine A1 receptor (P30542 whole entry): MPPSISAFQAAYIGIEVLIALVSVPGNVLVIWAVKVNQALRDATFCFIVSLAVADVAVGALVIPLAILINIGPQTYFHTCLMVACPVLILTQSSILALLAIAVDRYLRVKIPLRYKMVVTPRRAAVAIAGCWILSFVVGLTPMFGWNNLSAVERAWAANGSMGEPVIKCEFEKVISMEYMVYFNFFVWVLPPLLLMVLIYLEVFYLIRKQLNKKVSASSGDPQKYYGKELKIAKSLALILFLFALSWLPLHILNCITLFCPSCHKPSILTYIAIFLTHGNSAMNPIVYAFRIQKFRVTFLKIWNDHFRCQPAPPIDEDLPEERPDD

Compound	pKi [1]	pKi [2]	pKi [3]	pKi [4]
Cc1cc(-c2sc(NC(=O)N3C[C@H]4COC[C@H]4C3)nc2-c2cccc(C#N)c2)cc(C)n1 [Example 6.49, (3aR,6aS)-N-[4-(3-Cyanophenyl)-5-(2,6-dimethyl-4-pyridyl)thiazol-2-yl]-1,3,3a,4,6,6a-hexahydrofuro[3,4-c]pyrrole-5-carboxamide]	6.49	8.66	8.90	7.29
Cc1cc(-c2sc(NC(=O)N3C[C@@H]4CNC(=O)[C@@H]4C3)nc2-c2cccc(C#N)c2)cc(C)n1 [Example 6.52, (3aS,6aS)-N-[4-(3-Cyanophenyl)-5-(2,6-dimethyl-4-pyridyl)thiazol-2-yl]-3-oxo-1,2,3a,4,6,6a-hexahydropyrrolo[3,4-c]pyrrole-5-carboxamide]	6.62	8.07	8.37	6.92
Cc1cc(-c2sc(NC(=O)N3CCC(C(=O)O)CC3)nc2-c2cccc(C#N)c2)cc(C)n1 [Example 6.62, 1-[[4-(3-Cyanophenyl)-5-(2,6-dimethyl-4-pyridyl)thiazol-2-yl]carbamoyl]piperidine-4-carboxylic acid]	6.45	7.63	7.45	6.66
Cc1cc(-c2sc(NC(=O)N3CC[C@H](C(=O)O)C3)nc2-c2cccc(C#N)c2)cc(C)n1 [Example 6.63, (3S)-1-[[4-(3-Cyanophenyl)-5-(2,6-dimethyl-4-pyridyl)thiazol-2-yl]carbamoyl]pyrrolidine-3-carboxylic acid]	6.70	7.53	7.46	6.46
Cc1cc(-c2sc(NC(=O)N3CC(C(=O)O)C3)nc2-c2cccc(C#N)c2)cc(C)n1 [Example 6.70, 1-[[4-(3-Cyanophenyl)-5-(2,6-dimethyl-4-pyridyl)thiazol-2-yl]carbamoyl]azetidine-3-carboxylic acid]	6.72	7.88	8.02	6.79
Cc1cc(-c2sc(NC(=O)N3CC[C@H]3C)nc2-c2cccc(C#N)c2)cc(C)n1 [Example 6.78, (2R)-N-[4-(3-Cyanophenyl)-5-(2,6-dimethyl-4-pyridyl)thiazol-2-yl]-2-methyl-azetidine-1-carboxamide]	7.43	9.05	9.17	7.62
Cc1cc(-c2sc(NC(=O)N3CCC4(CCOC4)C3)nc2-c2cccc(C#N)c2)cc(C)n1 (stereo not drawn) [Example 6.80, N-[4-(3-Cyanophenyl)-5-(2,6-dimethyl-4-pyridyl)thiazol-2-yl]-2-oxa-7-azaspiro[4.4]nonane-7-carboxamide]	6.35	8.62	9.10	6.89
Cc1cc(-c2sc(NC(=O)N3CC[C@H]3C(C)(C)O)nc2-c2cccc(C#N)c2)cc(C)n1 [Example 6.82, (2S)-N-[4-(3-Cyanophenyl)-5-(2,6-dimethyl-4-pyridyl)thiazol-2-yl]-2-(1-hydroxy-1-methyl-ethyl)azetidine-1-carboxamide]	6.61	8.29	8.44	6.94
Cc1cc(-c2sc(NC(=O)N3CC[C@@H]3C(C)(C)O)nc2-c2cccc(C#N)c2)cc(C)n1 [Example 6.83, (2R)-N-[4-(3-Cyanophenyl)-5-(2,6-dimethyl-4-pyridyl)thiazol-2-yl]-2-(1-hydroxy-1-methyl-ethyl)azetidine-1-carboxamide]	6.53	6.99	7.17	6.89
Cc1cc(-c2sc(NC(=O)N3CCC(N4CCOCC4)C3)nc2-c2cccc(C#N)c2)cc(C)n1 (stereo not drawn) [Example 6.84, N-[4-(3-Cyanophenyl)-5-(2,6-dimethyl-4-pyridyl)thiazol-2-yl]-3-morpholino-pyrrolidine-1-carboxamide hemi formate salt]	6.25	8.08	8.35	6.67
Cc1cc(-c2sc(NC(=O)N3CCOC[C@@H]3C)nc2-c2cccc(C#N)c2)cc(C)n1 [Example 6.86, (3S)-N-[4-(3-Cyanophenyl)-5-(2,6-dimethyl-4-pyridyl)thiazol-2-yl]-3-methyl-morpholine-4-carboxamide]	6.74	8.72	9.17	8.70
Cc1cc(-c2sc(NC(=O)N3CCC34COC4)nc2-c2cccc(C#N)c2)cc(C)n1 [Example 6.87, N-[4-(3-Cyanophenyl)-5-(2,6-dimethyl-4-pyridyl)thiazol-2-yl]-6-oxa-1-azaspiro[3.3]heptane-1-carboxamide]	7.43	8.17	8.76	7.24

The next lines start with the values.

pKi [1]	pKi [2]	pKi [3]	pKi [4]	Compound
6.52	7.68	8.02	6.61	Cc1cc(-c2sc(NC(=O)N3CCN4C(=O)CNC(=O)C4C3)nc2-c2cccc(C#N)c2)cc(C)n1 (stereo not drawn) [Example 6.35, N-[4-(3-Cyanophenyl)-5-(2,6-dimethyl-4-pyridyl)thiazol-2-yl]-6,9-dioxo-1,3,4,7,8,9a-hexahydropyrazino[1,2-a]pyrazine-2-carboxamide]
6.45	8.00	8.74	7.04	Cc1cc(-c2sc(NC(=O)N3CCN4C(=O)COCC4C3)nc2-c2cccc(C#N)c2)cc(C)n1 (stereo not drawn) [Example 6.37, N-[4-(3-Cyanophenyl)-5-(2,6-dimethyl-4-pyridyl)thiazol-2-yl]-4-oxo-6,7,9,9a-tetrahydro-1H-pyrazino[2,1-c][1,4]oxazine-8-carboxamide]
6.41	7.40	8.00	6.42	Cc1cc(-c2sc(NC(=O)N3CCN4C(=O)CN(C)C(=O)C4C3)nc2-c2cccc(C#N)c2)cc(C)n1 (stereo not drawn) [Example 6.39, N-[4-(3-Cyanophenyl)-5-(2,6-dimethyl-4-pyridyl)thiazol-2-yl]-8-methyl-6,9-dioxo-3,4,7,9a-tetrahydro-1H-pyrazino[1,2-a]pyrazine-2-carboxamide]
6.76	8.09	8.95	7.29	Cc1cc(-c2sc(NC(=O)N3CCN4C(=O)CCCC4C3)nc2-c2cccc(C#N)c2)cc(C)n1 (stereo not drawn) [Example 6.43, N-[4-(3-Cyanophenyl)-5-(2,6-dimethyl-4-pyridyl)thiazol-2-yl]-6-oxo-3,4,7,8,9,9a-hexahydro-1H-pyrido[1,2-a]pyrazine-2-carboxamide]
6.34	8.21	8.51	6.73	CCN1CCN(C(=O)Nc2nc(-c3cccc(C#N)c3)c(-c3cc(C)nc(C)c3)s2)CC1 [Example 6.60, N-[4-(3-Cyanophenyl)-5-(2,6-dimethyl-4-pyridyl)thiazol-2-yl]-4-ethyl-piperazine-1-carboxamide]
6.53	7.76	7.34	6.73	Cc1cc(-c2sc(NC(=O)N3CC[C@@H](C(=O)O)C3)nc2-c2cccc(C#N)c2)cc(C)n1 [Example 6.65, (3R)-1-[[4-(3-Cyanophenyl)-5-(2,6-dimethyl-4-pyridyl)thiazol-2-yl]carbamoyl]pyrrolidine-3-carboxylic acid]
6.71	8.27	8.84	6.88	Cc1cc(-c2sc(NC(=O)N3CCC4(CCN(C)C4=O)CC3)nc2-c2cccc(C#N)c2)cc(C)n1 [Example 6.77, N-[4-(3-Cyanophenyl)-5-(2,6-dimethyl-4-pyridyl)thiazol-2-yl]-2-methyl-1-oxo-2,8-diazaspiro[4.5]decane-8-carboxamide]
6.67	7.80	7.92	7.36	Cc1cc(-c2sc(NC(=O)N3CC(=O)N[C@H](C)C3)nc2-c2cccc(C#N)c2)cc(C)n1 [Example 6.85, (3R)-N-[4-(3-Cyanophenyl)-5-(2,6-dimethyl-4-pyridyl)thiazol-2-yl]-3-methyl-5-oxo-piperazine-1-carboxamide]
6.52	8.46	9.00	6.49	Cc1cc(-c2sc(NC(=O)N3CCC4(CC3)CN(C)C(=O)N4C)nc2-c2cccc(C#N)c2)cc(C)n1 [Example 6.89, N-[4-(3-Cyanophenyl)-5-(2,6-dimethyl-4-pyridyl)thiazol-2-yl]-1,3-dimethyl-2-oxo-1,3,8-triazaspiro[4.5]decane-8-carboxamide]
